Source: ChEMBL document CHEMBL4715885, “Novel dual LSD1/HDAC6 inhibitors for the treatment of multiple myeloma” (Bioorg Med Chem Lett, 2021)
pEC50, pIC50: −log10 of the molar value. Active and inactive are the calls of the source. The calls are words filed in the database; no cut-off is given here.

Legend:
[1] = target: Histone deacetylase 1 (Homo sapiens) (UniProt Q13547); experiment: Inhibition of human HDAC1 at 1uM using RHKKAc as substrate by fluorescence method relative to control
[2] = target: T1, Lysine-specific histone demethylase 1A (Homo sapiens, UniProt O60341); experiment: Inhibition of LSD1 (unknown origin); details: for pIC50: read-out: IC50
[3] = Stability in mouse liver microsomes assessed as parent compound remaining measured after 30 mins; assay type: ADME, Microsome; details: liver microsomes, read-out: Stabilty
[4] = target: T2, Protein deacetylase HDAC6 (Homo sapiens, UniProt Q9UBN7); experiment: Inhibition of human HDAC6 (unknown origin) using RHKKAc as substrate by fluorescence method; details: read-out: IC50
T2 sequence (Q9UBN7 whole entry): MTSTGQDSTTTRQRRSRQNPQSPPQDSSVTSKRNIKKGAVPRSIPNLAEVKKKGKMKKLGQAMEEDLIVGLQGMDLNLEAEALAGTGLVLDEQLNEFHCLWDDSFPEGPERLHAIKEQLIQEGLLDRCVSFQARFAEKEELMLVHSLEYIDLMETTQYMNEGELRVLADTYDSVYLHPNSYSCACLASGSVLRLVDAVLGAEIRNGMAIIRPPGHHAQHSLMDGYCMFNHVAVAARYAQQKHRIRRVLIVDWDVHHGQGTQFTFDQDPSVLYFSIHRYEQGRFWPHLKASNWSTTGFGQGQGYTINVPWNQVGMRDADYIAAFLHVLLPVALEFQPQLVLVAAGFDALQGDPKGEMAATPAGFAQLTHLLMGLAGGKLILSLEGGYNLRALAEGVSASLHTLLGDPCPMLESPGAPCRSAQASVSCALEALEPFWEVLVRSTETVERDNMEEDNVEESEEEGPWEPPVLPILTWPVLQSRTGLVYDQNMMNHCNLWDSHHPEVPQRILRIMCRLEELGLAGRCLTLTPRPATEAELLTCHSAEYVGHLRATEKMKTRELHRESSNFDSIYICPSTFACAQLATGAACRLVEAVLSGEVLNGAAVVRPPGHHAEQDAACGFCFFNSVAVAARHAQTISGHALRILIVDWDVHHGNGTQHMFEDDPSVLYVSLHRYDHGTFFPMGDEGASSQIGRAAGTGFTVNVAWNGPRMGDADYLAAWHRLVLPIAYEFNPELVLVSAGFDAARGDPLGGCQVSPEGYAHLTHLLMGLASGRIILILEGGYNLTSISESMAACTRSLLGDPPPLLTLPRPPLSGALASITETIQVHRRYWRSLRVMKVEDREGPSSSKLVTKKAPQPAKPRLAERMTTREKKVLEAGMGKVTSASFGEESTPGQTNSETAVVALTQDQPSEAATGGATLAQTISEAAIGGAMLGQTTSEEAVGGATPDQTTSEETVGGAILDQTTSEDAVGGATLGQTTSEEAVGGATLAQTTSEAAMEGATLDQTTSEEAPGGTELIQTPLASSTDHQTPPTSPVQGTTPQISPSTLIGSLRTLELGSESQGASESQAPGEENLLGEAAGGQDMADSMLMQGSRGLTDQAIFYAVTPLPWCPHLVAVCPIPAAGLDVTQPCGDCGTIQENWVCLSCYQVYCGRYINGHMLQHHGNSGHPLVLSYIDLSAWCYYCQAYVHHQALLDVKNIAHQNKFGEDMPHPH

[5] = test system: MM1.S; experiment: Antiproliferative activity against human MM1.S cells assessed as reduction in cell viability after 144 hrs; assay type: functional, cell-based
[6] = Stability in human liver microsomes assessed as parent compound remaining measured after 30 mins; assay type: ADME, Microsome; details: liver microsomes, read-out: Stabilty
[7] = target: T1, Lysine-specific histone demethylase 1A; experiment: Inhibition of LSD1 in human MM1.S cells assessed as modulation of c-Myc mRNA expression at 0.5 uM after 6 to 24 hrs by qRT-PCR analysis; assay type: cell-based; details: time lower 6.0 hrs, time upper […]
[8] = target: T3, Protein deacetylase HDAC6 (Homo sapiens) (UniProt Q9UBN7); experiment: Inhibition of HDAC6 in human MM1.S cells assessed as modulation alpha-tubulin acetylation at 100 to 500 nM after 1 to 3 hrs by Western blot analysis; assay type: cell-based; details: dose 100-500 nM, time 1-3 hrs
T3 sequence (whole entry): T2 sequence (Q9UBN7 whole entry)

[9] = target: T3, Protein deacetylase HDAC6 (Homo sapiens); experiment: Inhibition of HDAC6 in human MM1.S cells assessed as modulation of p21 mRNA expression at 0.5 uM after 6 to 24 hrs by qRT-PCR analysis; assay type: cell-based; details: time lower 6.0 hrs, time upper […]
[10] = target: T1, Lysine-specific histone demethylase 1A; experiment: Inhibition of LSD1 in human MM1.S cells assessed as modulation alpha-tubulin acetylation at 100 to 500 nM after 1 to 3 hrs by Western blot analysis; assay type: cell-based; details: dose 100-500 nM, time 1-3 hrs
[11] = target: T3, Protein deacetylase HDAC6 (Homo sapiens); experiment: Inhibition of HDAC6 in human MM1.S cells assessed as modulation of c-Myc mRNA expression at 0.5 uM after 6 to 24 hrs by qRT-PCR analysis; assay type: cell-based; details: time lower 6.0 hrs, time upper […]
[12] = target: T1, Lysine-specific histone demethylase 1A; experiment: Inhibition of LSD1 in human MM1.S cells assessed as modulation of p21 mRNA expression at 0.5 uM after 6 to 24 hrs by qRT-PCR analysis; assay type: cell-based; details: time lower 6.0 hrs, time upper […]
[13] = test system: MM1.S; experiment: Antitumour activity against human MM1.S cells xenografted in SCID mouse assessed as tumour growth inhibition at 25 mg/kg, po for 12 days relative to control; assay type: functional; details: 288 h, time 12 day, read-out: TGI
[14] = test system: MM1.S; experiment: Antitumour activity against human MM1.S cells xenografted in SCID mouse assessed as tumour growth inhibition at 50 mg/kg, […] for 12 days relative to control; assay type: functional; details: 288 h, time 12 day, read-out: TGI

Chain of Histone deacetylase 1 (Homo sapiens) (Q13547 whole entry): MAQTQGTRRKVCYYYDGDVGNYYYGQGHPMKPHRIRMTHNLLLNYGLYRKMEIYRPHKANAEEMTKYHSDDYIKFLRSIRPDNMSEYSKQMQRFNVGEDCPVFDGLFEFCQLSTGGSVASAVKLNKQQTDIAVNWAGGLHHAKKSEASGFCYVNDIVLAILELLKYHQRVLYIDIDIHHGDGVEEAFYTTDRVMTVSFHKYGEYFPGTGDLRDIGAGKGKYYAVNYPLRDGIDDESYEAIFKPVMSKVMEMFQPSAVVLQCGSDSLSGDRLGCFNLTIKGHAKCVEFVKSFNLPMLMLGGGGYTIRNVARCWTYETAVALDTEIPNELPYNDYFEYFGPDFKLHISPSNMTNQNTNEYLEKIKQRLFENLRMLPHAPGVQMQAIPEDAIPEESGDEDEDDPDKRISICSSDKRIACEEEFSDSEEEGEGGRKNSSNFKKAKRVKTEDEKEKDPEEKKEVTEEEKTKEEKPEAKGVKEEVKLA

Cn1cc(-c2ccc([C@H]3C[C@@H]3NCC3CCN(CCCc4ccc(C(=O)NO)cc4)CC3)cc2)cn1 (racemic)
inhibition [1]: 41.6% | pIC50 [2]: 7.37 | remaining at 0.5 h [3]: 66% | pIC50 [4]: 7.18 | pEC50 [5]: 8.15 | remaining at 0.5 h [6]: 77%

O=C(NO)c1ccc(CCCN2CCC(CN[C@H]3C[C@@H]3c3ccc(-c4ccc(Cl)cc4)cc3)CC2)cc1 (racemic)
inhibition [1]: 23.6% | pIC50 [2]: 8.70 | remaining at 0.5 h [3]: 81% | pIC50 [4]: 7.72 | remaining at 0.5 h [6]: 77%

COc1ccc([C@H]2C[C@@H]2NCC2CCN(CCCc3ccc(C(=O)NO)cc3)CC2)cc1 (racemic)
inhibition [1]: 46.7% | pIC50 [2]: 8.22 | remaining at 0.5 h [3]: 91% | pIC50 [4]: 7.42 | remaining at 0.5 h [6]: 74%

O=C(NO)c1csc(CCCN2CCC(CN[C@H]3C[C@@H]3c3ccccc3)CC2)n1 (racemic)
inhibition [1]: -0.22% | pIC50 [2]: 7.59 | remaining at 0.5 h [3]: 95% | pIC50 [4]: < 5.00 | pEC50 [5]: < 5.00 | remaining at 0.5 h [6]: 88%

N#Cc1ccc(-c2ccc([C@H]3C[C@@H]3NCC3CCN(CCCc4ccc(C(=O)NO)cc4)CC3)cc2)cc1 (racemic)
pIC50 [2]: 7.49 | remaining at 0.5 h [3]: 75% | remaining at 0.5 h [6]: 76%

O=C(NO)c1ccc(CCCN2CCC(CN[C@H]3C[C@@H]3c3ccc(-c4ccc(F)cc4)cc3)CC2)cc1 (racemic)
inhibition [1]: 9.74% | pIC50 [2]: 6.09 | remaining at 0.5 h [3]: 75% | pIC50 [4]: 7.23 | remaining at 0.5 h [6]: 92%

O=C(NO)c1ccc(CCCN2CCC(CN[C@H]3C[C@@H]3c3ccccc3)CC2)cc1 (racemic)
inhibition [1]: 18.4% | inhibition [7]: Active | inhibition [8]: Active | inhibition [9]: Active | inhibition [10]: Active | inhibition [11]: Active | inhibition [12]: Active

O=C(NO)c1coc(CCCN2CCC(CN[C@H]3C[C@@H]3c3ccccc3)CC2)n1 (racemic)
inhibition [1]: 6.85% | pIC50 [2]: 7.59 | remaining at 0.5 h [3]: 76% | pIC50 [4]: < 5.00 | pEC50 [5]: < 5.00 | remaining at 0.5 h [6]: 78%

O=C(NO)c1ccc(CCCN2CCC(CN[C@@H]3C[C@H]3c3ccccc3)CC2)cc1
inhibition [1]: 57.6% | remaining at 0.5 h [3]: 26% | pEC50 [5]: 8.52 | remaining at 0.5 h [6]: 38%

O=C(NO)c1ccc(CCCN2CCc3cc(CN[C@H]4C[C@@H]4c4ccc(F)cc4)ccc3C2)cc1 (racemic)
remaining at 0.5 h [3]: 32% | remaining at 0.5 h [6]: 72%

O=C(O)c1ccc(CCCN2CCC(CN[C@H]3C[C@@H]3c3ccccc3)CC2)cc1 (racemic)
inhibition [1]: 8.36% | remaining at 0.5 h [3]: 80% | pIC50 [4]: < 5.00 | pEC50 [5]: < 5.00 | remaining at 0.5 h [6]: 63%

O=C(NO)c1ccc(CCCN2CCC(CN[C@H]3C[C@@H]3c3ccccc3)CC2)cc1 [listing 1 of 2 here]
remaining at 0.5 h [3]: 50% | pEC50 [5]: 8.40 | remaining at 0.5 h [6]: 51%

O=C(NO)c1ccc(CCCN2CCC(CN[C@H]3C[C@@H]3c3ccccc3)CC2)cc1 [listing 2 of 2 here]
inhibition [1]: 2.06%

O=C(NO)c1ccc(CCCN2CCC(CN[C@H]3C[C@@H]3c3ccc(-c4ccc(C(F)(F)F)nc4)cc3)CC2)cc1 (racemic)
inhibition [1]: 33.5% | pIC50 [2]: 7.72 | remaining at 0.5 h [3]: 85% | pIC50 [4]: 7.00 | remaining at 0.5 h [6]: 79%

Cn1ccc(-c2ccc([C@H]3C[C@@H]3NCC3CCN(CCCc4ccc(C(=O)NO)cc4)CC3)cc2)cc1=O (racemic)
inhibition [1]: 59.4% | pIC50 [2]: 7.68 | remaining at 0.5 h [3]: 72% | pIC50 [4]: 7.34 | remaining at 0.5 h [6]: 73%

O=C(NO)c1ccc(CN2CCC(CN[C@H]3C[C@@H]3c3ccccc3)CC2)cc1 (racemic)
inhibition [1]: 12.9% | remaining at 0.5 h [3]: 53% | remaining at 0.5 h [6]: 63%

O=C(O)c1ccc(CN2CCC(CN[C@@H]3C[C@H]3c3ccccc3)CC2)cc1 [GSK2879552]
inhibition in vivo at 25 mg/kg [13]: 40%

O=C(NO)c1ccc(CCCN2CCC(CN[C@H]3C[C@@H]3c3ccc(F)cc3)CC2)cc1 (racemic)
inhibition [1]: 12.7% | pIC50 [2]: 8.22 | remaining at 0.5 h [3]: 66% | pIC50 [4]: 7.29 | remaining at 0.5 h [6]: 54%

COc1ccc([C@H]2C[C@@H]2NCc2cn3c(n2)CN(CCCc2ccc(C(=O)NO)cc2)CC3)cc1 (racemic)
inhibition [1]: 26.6% | pIC50 [2]: 5.96 | remaining at 0.5 h [3]: < 5% | pIC50 [4]: 7.55 | remaining at 0.5 h [6]: 73%

CN(C)CCNC(=O)c1ccc([C@H]2C[C@@H]2NCC2CCN(CCCc3ccc(C(=O)NO)cc3)CC2)cc1 (racemic)
inhibition [1]: 58.1% | pIC50 [2]: 7.66 | remaining at 0.5 h [3]: 36% | pIC50 [4]: 6.89 | remaining at 0.5 h [6]: 40%

CN(CC1CCN(CCCc2ccc(C(=O)NO)cc2)CC1)[C@H]1C[C@@H]1c1ccccc1 (racemic)
inhibition [1]: 8.37% | pIC50 [2]: 6.33 | pEC50 [5]: 7.32

O=C(CCCCCCNC(=O)c1cnc(N(c2ccccc2)c2ccccc2)nc1)NO [RICOLINOSTAT]
inhibition in vivo at 50 mg/kg [14]: 36% | IC50 [2]: Not Active | remaining at 0.5 h [3]: 77% | pEC50 [5]: 9.07 | remaining at 0.5 h [6]: 93%

O=C(NO)c1ccc(CCCN2CCC(CN[C@H]3C[C@@H]3c3ccc(OCc4ccc(F)cc4)cc3)CC2)cc1 (racemic)
inhibition [1]: -1.79% | pIC50 [2]: 8.40 | remaining at 0.5 h [3]: 56% | pIC50 [4]: 7.92 | remaining at 0.5 h [6]: 79%

O=C(NO)c1ccc(CCCN2CCC(CN[C@H]3C[C@@H]3c3ccc(C(=O)N4CCOCC4)cc3)CC2)cc1 (racemic)
inhibition [1]: 47.6% | pIC50 [2]: 7.66 | remaining at 0.5 h [3]: 82% | remaining at 0.5 h [6]: 89%

Cc1noc(C)c1-c1ccc([C@H]2C[C@@H]2NCC2CCN(CCCc3ccc(C(=O)NO)cc3)CC2)cc1 (racemic)
inhibition [1]: 35.4% | pIC50 [2]: 7.23 | remaining at 0.5 h [3]: 77% | pIC50 [4]: 7.24 | pEC50 [5]: 7.96 | remaining at 0.5 h [6]: 82%

O=C(NO)c1ccc(CCCN2CC(CN[C@H]3C[C@@H]3c3ccccc3)C2)cc1 (racemic)
inhibition [1]: 0.7% | pIC50 [2]: 7.54 | remaining at 0.5 h [3]: < 5% | pIC50 [4]: 6.74 | pEC50 [5]: 7.60 | remaining at 0.5 h [6]: 84%

O=C(NO)c1ccc(CCN2CCC(CN[C@H]3C[C@@H]3c3ccccc3)CC2)cc1 (racemic)
inhibition [1]: 50.7% | pIC50 [2]: 7.82 | remaining at 0.5 h [3]: 68% | pIC50 [4]: 6.31 | pEC50 [5]: 7.55 | remaining at 0.5 h [6]: 77%

O=C(NO)c1cnc(CCCN2CCC(CN[C@H]3C[C@@H]3c3ccccc3)CC2)s1 (racemic)
inhibition [1]: 10.7% | pIC50 [2]: 7.66 | remaining at 0.5 h [3]: 87% | pIC50 [4]: 6.29 | pEC50 [5]: 7.20 | remaining at 0.5 h [6]: 90%

O=C(NO)c1ccc(CCCN2CCC(CN[C@H]3C[C@@H]3c3ccc(C(=O)N4CCCCC4)cc3)CC2)cc1 (racemic)
inhibition [1]: 53.9% | pIC50 [2]: 7.64 | remaining at 0.5 h [3]: 72% | remaining at 0.5 h [6]: 65%
